The values below come from BindingDB's records for doi:10.1016/s0014-2999(98)00159-9 (Novartis Pharma, 1998).

“And” between values parts separate entries of the source, which are not always exact repeats. Equal entries are not always repeated. Where a SMILES comes first, the peptide text is derived from it. Bridges are numbered along the chain shown (N, C = ends). [ ]: non-standard residue; d: D form. The star is where a group is joined. d1Nal = N[C@H](Cc1cccc2ccccc12)C(=O)O; Ahp = NCCCCCCC(=O)O; Bn = c1ccc(C*)cc1

The Ki is the equilibrium dissociation constant of an inhibitor or competing ligand from its target. A high value points to lower affinity.

One assay deals with Somatostatin receptor type 5 (Homo sapiens, UniProt P35346).
Sequence of Somatostatin receptor type 5 (P35346 whole entry): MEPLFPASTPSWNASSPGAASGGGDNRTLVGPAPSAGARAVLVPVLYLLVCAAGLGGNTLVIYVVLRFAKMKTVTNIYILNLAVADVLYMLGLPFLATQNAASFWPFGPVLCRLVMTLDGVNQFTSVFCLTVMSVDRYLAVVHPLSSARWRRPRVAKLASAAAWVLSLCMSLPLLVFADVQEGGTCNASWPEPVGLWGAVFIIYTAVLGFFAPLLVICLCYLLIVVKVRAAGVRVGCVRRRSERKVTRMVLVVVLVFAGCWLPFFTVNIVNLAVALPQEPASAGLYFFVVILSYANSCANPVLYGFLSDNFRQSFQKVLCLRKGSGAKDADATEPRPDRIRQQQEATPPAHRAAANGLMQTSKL
Regarding `C[C@@H](O)[C@@H]1NC(=O)[C@H](CCCCN)NC(=O)[C@H](Cc2c[nH]c3ccccc23)NC(=O)[C@H](Cc2ccccc2)NC(=O)[C@H](Cc2ccccc2)NC(=O)[C@H](CC(N)=O)NC(=O)[C@H](CCCCN)NC(=O)[C@@H](NC(=O)[C@@H]2CCCN2)CSSC[C@@H](C(=O)N[C@@H](CCCCN)C(=O)O)NC(=O)[C@H](CO)NC(=O)[C@H](CO)NC(=O)[C@H](Cc2ccccc2)NC1=O` [CORTISTATIN-14] (H-PCKNFFWKTFSSCK-OH; disulfide 2-13), the Ki was 0.57 nM and 1.94 nM and 0.45 nM.

The target in the next assay is Somatostatin receptor type 2 (Homo sapiens, UniProt P30874).
Sequence of Somatostatin receptor type 2 (P30874 whole entry): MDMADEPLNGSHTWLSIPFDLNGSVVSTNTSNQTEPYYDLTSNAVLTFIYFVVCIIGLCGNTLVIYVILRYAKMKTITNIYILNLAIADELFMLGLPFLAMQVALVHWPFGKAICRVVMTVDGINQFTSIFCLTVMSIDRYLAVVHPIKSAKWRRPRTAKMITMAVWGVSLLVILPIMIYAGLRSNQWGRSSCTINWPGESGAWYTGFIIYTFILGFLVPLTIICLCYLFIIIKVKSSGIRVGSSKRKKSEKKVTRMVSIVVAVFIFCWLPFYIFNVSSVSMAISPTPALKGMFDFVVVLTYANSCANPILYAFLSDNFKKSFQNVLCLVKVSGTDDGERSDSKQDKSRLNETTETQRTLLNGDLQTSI
For the molecule `CC(C)[C@@H]1NC(=O)[C@H](CCCCN)NC(=O)[C@@H](Cc2c[nH]c3ccccc23)NC(=O)[C@H](Cc2ccc(O)cc2)NC(=O)[C@@H](NC(=O)[C@H](N)Cc2ccc3ccccc3c2)CSSC[C@@H](C(=O)N[C@H](C(N)=O)[C@@H](C)O)NC1=O` [3-(2-Naphtyl)-D-Ala-L-Cys(1)-L-Tyr-D-Trp-L-Lys-L-Val-L-Cys(1)-L-Thr-NH2], the Ki is 0.53 nM and 1.38 nM and 0.28 nM and 0.21 nM.

In the case of `C[C@@H](OCc1ccccc1)[C@@H]1NC(=O)[C@H](CCCCN)NC(=O)[C@@H](Cc2c[nH]c3ccccc23)NC(=O)[C@H](Cc2ccccc2)NC(=O)CCCCCCNC1=O` [c[Aha-Phe-D-Trp-Lys-Thr(Bzl)]] (cyclo([Ahp]F[dW]KT(Bn))), the Ki is 1580 nM and 3980 nM and 3720 nM and 1700 nM and 1260 nM.

Regarding `C[C@@H](O)[C@H](NC(=O)[C@H](Cc1ccccc1)NC(=O)[C@@H](NC(=O)[C@H](CCCCN)NC(=O)[C@@H](Cc1c[nH]c2ccccc12)NC(=O)[C@H](Cc1ccccc1)NC(=O)[C@H](Cc1ccccc1)NC(=O)[C@H](N)Cc1ccccc1)[C@@H](C)O)C(N)=O` [CAS_133073-82-2] (H-[dF]FF[dW]KTFT-NH2), the Ki was 1.73 nM and 5.01 nM and 16.6 nM and 2.81 nM and 1.86 nM.

On to `CC(C)[C@H](NC(=O)[C@H](CCCCN)NC(=O)[C@@H](Cc1c[nH]c2ccccc12)NC(=O)[C@H](Cc1ccc(O)cc1)NC(=O)[C@H](Cc1ccccc1)NC(=O)[C@H](N)Cc1ccccc1)C(=O)N[C@@H](Cc1ccccc1)C(=O)N[C@H](Cc1cccc2ccccc12)C(N)=O` [BIM 23056] (H-[dF]FY[dW]KVF[d1Nal]-NH2), for which the Ki is 468 nM and 724 nM and 417 nM and 224 nM.

For `C[C@@H](O)[C@@H]1NC(=O)[C@H](CCCCN)NC(=O)[C@H](Cc2c[nH]c3ccccc23)NC(=O)[C@H](Cc2ccccc2)NC(=O)[C@H](Cc2ccccc2)NC(=O)[C@H](CC(N)=O)NC(=O)[C@H](CCCCN)NC(=O)[C@@H](NC(=O)[C@@H]2CCCN2)CSSC[C@@H](C(=O)N[C@@H](CCCCN)C(=O)O)NC(=O)[C@H](CO)NC(=O)[C@H](CO)NC(=O)[C@H](Cc2ccccc2)NC1=O` [CORTISTATIN-14] (H-PCKNFFWKTFSSCK-OH; disulfide 2-13), the Ki is 0.91 nM and 1.77 nM and 4.46 nM.

For `C[C@@H](O)[C@@H]1NC(=O)[C@H](CCCCN)NC(=O)[C@@H](Cc2c[nH]c3ccccc23)NC(=O)[C@H](Cc2ccccc2)NC(=O)[C@@H]2CCCN2C(=O)[C@H](Cc2ccccc2)NC1=O` (cyclo(PF[dW]KTF)), the Ki was 5.24 nM and 4.07 nM and 4.78 nM and 0.53 nM.

Consider `C[C@@H](O)[C@@H]1NC(=O)[C@H](CCCCN)NC(=O)[C@@H](Cc2c[nH]c3ccccc23)NC(=O)[C@H](Cc2c[nH]c3ccccc23)NC(=O)[C@H](Cc2ccccc2)NC(=O)CCCCCCNC(=O)[C@H](Cc2ccccc2)NC1=O` [L-362855] (cyclo([Ahp]FW[dW]KTF)), for which the Ki was 2.04 nM and 4.36 nM and 1.62 nM.
